Consider one compound from paper PMC9104798, “Plant Alkaloid Tetrandrine Is a Nuclear Receptor 4A1 Antagonist and Inhibits Panc-1 Cell Growth In Vitro and In Vivo” (International Journal of Molecular Sciences, 2022).

Structures are written as SMILES.

The assay deals with nuclear receptor 4A1 (NR4A1) (Homo sapiens, UniProt P22736). In words: tryptophan fluorescence quenching with NR4A1 LBD ([…]). It counts as binding.
nuclear receptor 4A1 (NR4A1), sequence (P22736 351-598 limits assumed): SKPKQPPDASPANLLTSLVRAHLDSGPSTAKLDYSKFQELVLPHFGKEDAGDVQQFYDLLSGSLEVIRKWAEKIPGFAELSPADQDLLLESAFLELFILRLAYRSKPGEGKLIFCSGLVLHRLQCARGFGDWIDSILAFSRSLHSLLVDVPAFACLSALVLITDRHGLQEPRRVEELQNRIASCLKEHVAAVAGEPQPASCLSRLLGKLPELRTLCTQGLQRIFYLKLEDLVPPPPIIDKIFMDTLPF

Turning to `COc1ccc2cc1Oc1ccc(cc1)C[C@H]1c3cc(c(OC)cc3CCN1C)Oc1c(OC)c(OC)cc3c1[C@H](C2)N(C)CC3` [TTD, tetrandrine], the Kd was 10.6 µM.
